Source: PubChem BioAssay AID256 (DTP/NCI, 2004)
Several values for one entry are separate records, joined by “and”; a condition that tells them apart may be missing. Identical values can stand only once. Inconclusive results and toxic doses are left out.

Test system: CD2F1 mice, L1210 leukemia ip, survival T/C
Assay: NCI In Vivo Anticancer Drug Screen. Data for tumor model L1210 Leukemia (intraperitoneal) in CD2F1 (CDF1) mice
Details: higher = longer survival
Outline: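 Compound-dosed mice with transplantable tumor versus matched vehicle controls; endpoint ratio T/C reported.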

[1] = endpoint: mean survival time, dose: 100.0 mg/kg/injection, schedule: Q01DX009 (ip), vehicle: saline with Tween-80
[2] = endpoint: mean survival time, dose: 100.0 mg/kg/injection, schedule: Q04DX003 (ip), vehicle: saline with Tween-80
[3] = endpoint: mean survival time, dose: 200.0 mg/kg/injection, schedule: Q01DX009 (ip), vehicle: saline with Tween-80
[4] = endpoint: mean survival time, dose: 200.0 mg/kg/injection, schedule: Q04DX003 (ip), vehicle: saline with Tween-80
[5] = endpoint: mean survival time, dose: 400.0 mg/kg/injection, schedule: Q01DX009 (ip), vehicle: saline with Tween-80
[6] = endpoint: mean survival time, dose: 400.0 mg/kg/injection, schedule: Q04DX003 (ip), vehicle: saline with Tween-80
[7] = endpoint: mean survival time, dose: 100.0 mg/kg/injection, schedule: Q01DX001 (ip), vehicle: saline
[8] = endpoint: mean survival time, dose: 200.0 mg/kg/injection, schedule: Q01DX001 (ip), vehicle: saline
[9] = endpoint: mean survival time, dose: 400.0 mg/kg/injection, schedule: Q01DX001 (ip), vehicle: saline
[10] = endpoint: mean survival time, dose: 12.5 mg/kg/injection, schedule: Q01DX009 (ip), vehicle: saline
[11] = endpoint: mean survival time, dose: 25.0 mg/kg/injection, schedule: Q01DX009 (ip), vehicle: saline
[12] = endpoint: mean survival time, dose: 50.0 mg/kg/injection, schedule: Q01DX009 (ip), vehicle: saline with Tween-80

For `O=C(O)C12CCC(CC1)CC2`, the T/C (endpoint: mean survival time, dose: 75.0 mg/kg/injection, schedule: Q01DX001 (ip), vehicle: other) was 107 % of control, the T/C (endpoint: mean survival time, dose: 150.0 mg/kg/injection, schedule: Q01DX001 (ip), vehicle: other) was 104 % of control and the T/C (endpoint: mean survival time, dose: 300.0 mg/kg/injection, schedule: Q01DX001 (ip), vehicle: other) was 104 % of control.
For `O=C(O)C1C2OC3C(OC(=O)C31)C2Br` (stereo not drawn), the T/C [1] was 96 % of control, the T/C [2] was 91 % of control and the T/C [3] was 93 % of control. The T/C [4] was 89 % of control, the T/C [5] was 91 % of control and the T/C [6] was 89 % of control.
For `O=C1NC(=O)/C(=C/c2ccccc2)N1`, the T/C (endpoint: mean survival time, dose: 75.0 mg/kg/injection, schedule: Q04DX003 (ip), vehicle: saline sonified) was 100 % of control, the T/C (endpoint: mean survival time, dose: 150.0 mg/kg/injection, schedule: Q04DX003 (ip), vehicle: saline sonified) was 105 % of control and the T/C (endpoint: mean survival time, dose: 300.0 mg/kg/injection, schedule: Q04DX003 (ip), vehicle: saline sonified) was 105 % of control.
For `COC(=O)C(C)NC(=O)C(CO)NC(=O)c1cnc2ccccc2n1` (stereo not drawn), the T/C [7] was 98 % of control, the T/C [8] was 102 % of control and the T/C [9] was 94 % of control.
With `Cn1cnc([N+](=O)[O-])c1Sc1ncn[nH]1` the T/C [10] was 104 % of control, the T/C (endpoint: mean survival time, dose: 12.5 mg/kg/injection, schedule: Q01DX009 (ip), vehicle: suspension in saline) was 101 % of control and the T/C [11] was 107 % of control. For the same molecule, the T/C (endpoint: mean survival time, dose: 25.0 mg/kg/injection, schedule: Q01DX009 (ip), vehicle: suspension in saline) was 104 % of control, the T/C (endpoint: mean survival time, dose: 50.0 mg/kg/injection, schedule: Q01DX009 (ip), vehicle: saline) was 104 % of control and the T/C (endpoint: mean survival time, dose: 50.0 mg/kg/injection, schedule: Q01DX009 (ip), vehicle: suspension in saline) was 104 % of control. The T/C (endpoint: mean survival time, dose: 100.0 mg/kg/injection, schedule: Q01DX009 (ip), vehicle: saline) was 102 % of control, the T/C (endpoint: mean survival time, dose: 100.0 mg/kg/injection, schedule: Q01DX009 (ip), vehicle: suspension in saline) was 106 % of control and the T/C (endpoint: mean survival time, dose: 200.0 mg/kg/injection, schedule: Q01DX009 (ip), vehicle: saline) was 107 % of control. For the same molecule, the T/C (endpoint: mean survival time, dose: 400.0 mg/kg/injection, schedule: Q01DX009 (ip), vehicle: saline) was 104 % of control.
For `O=C1CCN(Cc2ccccc2)C(=O)N1`, the T/C [12] was 97 % of control, the T/C [1] was 98 % of control and the T/C [2] was 106 % of control. The T/C [3] was 98 % of control and the T/C [4] was 97 % of control.
`C[n+]1cccc(NC(=O)c2ccc(NC(=O)c3ccc(C(=O)Nc4ccc(NC(=N)N)cc4)cc3)cc2)c1` was tested, and the T/C (endpoint: mean survival time, dose: 1.3 mg/kg/injection, schedule: Q01DX009 (ip), vehicle: saline) was 173 % of control, the T/C (endpoint: mean survival time, dose: 2.0 mg/kg/injection, schedule: Q01DX009 (ip), vehicle: saline) was 307 % of control and the T/C (endpoint: mean survival time, dose: 3.0 mg/kg/injection, schedule: Q01DX009 (ip), vehicle: saline) was 259 % of control. For the same molecule, the T/C (endpoint: mean survival time, dose: 8.0 mg/kg/injection, schedule: Q01DX009 (ip), vehicle: saline) was 115 % of control, the T/C (endpoint: mean survival time, dose: 12.0 mg/kg/injection, schedule: Q01DX009 (ip), vehicle: saline) was 112 % of control and the T/C (endpoint: mean survival time, dose: 18.0 mg/kg/injection, schedule: Q01DX009 (ip), vehicle: saline) was 97 % of control.
In the case of `O=C1c2ccccc2C(=O)N1OCCCN1C(=O)c2ccccc2S1(=O)=O`, the T/C [7] was 96 % of control, the T/C [8] was 100 % of control and the T/C [9] was 100 % of control.
For `CC1(C)N=C(N)N=C(N)N1c1ccc(OCCCOc2ccc(S(=O)(=O)F)cc2)c(Cl)c1`, the T/C (endpoint: mean survival time, dose: 6.25 mg/kg/injection, schedule: Q01DX009 (ip), vehicle: saline) was 104 % of control, the T/C [10] was 98 % of control and the T/C [11] was 104 % of control.
For `CC(=O)C(C(C)=O)C1C=CC=CC=C1`, the T/C [12] was 100 % of control and the T/C [3] was 94 % of control.
`CCOC(=O)CC(=O)c1ccccc1SC` was tested, and the T/C [1] was 98 % of control, the T/C [3] was 96 % of control and the T/C [5] was 96 % of control.
`COc1cc(OC)c(NC(=O)Oc2ccc(C=O)cc2OC)cc1Cl` was tested, and the T/C [12] was 86 % of control and the T/C [1] was 96 % of control.
In the case of `CCOC(=O)/C(Br)=C/SCCN`, the T/C [7] was 111 % of control, the T/C [8] was 105 % of control and the T/C [9] was 100 % of control.
In the case of `Cc1cccc(Oc2ccc(C(F)(F)F)cc2[N+](=O)[O-])c1`, the T/C (endpoint: mean survival time, dose: 100.0 mg/kg/injection, schedule: Q01DX001 (ip), vehicle: saline with Tween-80) was 98 % of control, the T/C (endpoint: mean survival time, dose: 200.0 mg/kg/injection, schedule: Q01DX001 (ip), vehicle: saline with Tween-80) was 90 % of control and the T/C (endpoint: mean survival time, dose: 400.0 mg/kg/injection, schedule: Q01DX001 (ip), vehicle: saline with Tween-80) was 91 % of control.
For `CCC1(O)C(=O)OCc2c1cc1n(c2=O)Cc2cc3ccc(O)cc3nc2-1` (stereo not drawn), the T/C (endpoint: median survival time, dose: 3.75 mg/kg/injection, schedule: Q04DX002 (ip), vehicle: Klucel (hydroxypropylcellulose) (HPC)) was 121 % of control, the T/C (endpoint: median survival time, dose: 7.5 mg/kg/injection, schedule: Q04DX002 (ip), vehicle: Klucel (hydroxypropylcellulose) (HPC)) was 272 % of control and the T/C (endpoint: median survival time, dose: 15.0 mg/kg/injection, schedule: Q04DX002 (ip), vehicle: Klucel (hydroxypropylcellulose) (HPC)) was 190 % of control. For the same molecule, the T/C (endpoint: median survival time, dose: 30.0 mg/kg/injection, schedule: Q04DX002 (ip), vehicle: Klucel (hydroxypropylcellulose) (HPC)) was 152 % of control and the T/C (endpoint: median survival time, dose: 60.0 mg/kg/injection, schedule: Q04DX002 (ip), vehicle: Klucel (hydroxypropylcellulose) (HPC)) was 154 % of control and 357 % of control.
With `CCOC(=O)CC(O)CC` (stereo not drawn) the T/C (endpoint: mean survival time, dose: 100.0 mg/kg/injection, schedule: Q04DX002 (ip), vehicle: saline) was 95 % of control, the T/C (endpoint: mean survival time, dose: 200.0 mg/kg/injection, schedule: Q04DX002 (ip), vehicle: saline) was 95 % of control and the T/C (endpoint: mean survival time, dose: 400.0 mg/kg/injection, schedule: Q04DX002 (ip), vehicle: saline) was 95 % of control.
For `C[N+]12CCN(CC1)CC2`, the T/C (endpoint: mean survival time, dose: 100.0 mg/kg/injection, schedule: Q04DX003 (ip), vehicle: saline) was 102 % of control, the T/C (endpoint: mean survival time, dose: 200.0 mg/kg/injection, schedule: Q04DX003 (ip), vehicle: saline) was 104 % of control and the T/C (endpoint: mean survival time, dose: 400.0 mg/kg/injection, schedule: Q04DX003 (ip), vehicle: saline) was 104 % of control.
In the case of `N#CCCc1ccccc1`, the T/C (endpoint: mean survival time, dose: 3.13 mg/kg/injection, schedule: Q01DX009 (ip), vehicle: saline with Tween-80) was 97 % of control, the T/C (endpoint: mean survival time, dose: 3.13 mg/kg/injection, schedule: Q04DX003 (ip), vehicle: saline) was 92 % of control and the T/C (endpoint: mean survival time, dose: 6.25 mg/kg/injection, schedule: Q01DX009 (ip), vehicle: saline with Tween-80) was 94 % of control. For the same molecule, the T/C (endpoint: mean survival time, dose: 6.25 mg/kg/injection, schedule: Q04DX003 (ip), vehicle: saline) was 89 % of control, the T/C (endpoint: mean survival time, dose: 12.5 mg/kg/injection, schedule: Q01DX009 (ip), vehicle: saline with Tween-80) was 94 % of control and the T/C (endpoint: mean survival time, dose: 12.5 mg/kg/injection, schedule: Q04DX003 (ip), vehicle: saline with Tween-80) was 106 % of control. The T/C (endpoint: mean survival time, dose: 12.5 mg/kg/injection, schedule: Q04DX003 (ip), vehicle: saline) was 92 % of control, the T/C (endpoint: mean survival time, dose: 25.0 mg/kg/injection, schedule: Q04DX003 (ip), vehicle: saline with Tween-80) was 123 % of control and the T/C (endpoint: mean survival time, dose: 50.0 mg/kg/injection, schedule: Q04DX003 (ip), vehicle: saline with Tween-80) was 92 % of control.
`CC1(C)OC(=O)C(c2ccccc2)O1` (stereo not drawn) was tested, and the T/C [2] was 100 % of control, the T/C [4] was 98 % of control and the T/C [6] was 104 % of control.
`OCCNCc1ccc(OCc2ccccc2)c(OCc2ccccc2)c1` was tested, and the T/C (endpoint: median survival time, dose: 50.0 mg/kg/injection, schedule: Q04DX003 (ip), vehicle: saline with Tween-80) was 90 % of control and the T/C (endpoint: median survival time, dose: 100.0 mg/kg/injection, schedule: Q04DX003 (ip), vehicle: saline with Tween-80) was 90 % of control.
`Nc1nc(-c2ccccc2)c(Br)c(=O)[nH]1` was tested, and the T/C [2] was 104 % of control, the T/C [4] was 96 % of control and the T/C [6] was 93 % of control.
`CC1(C)OC2C(CN=[N+]=[N-])OC(n3cnc4c(=O)[nH]c(N)nc43)C2O1` (stereo not drawn) was tested, and the T/C (endpoint: mean survival time, dose: 100.0 mg/kg/injection, schedule: Q01DX001 (ip), vehicle: Klucel (hydroxypropylcellulose) (HPC)) was 109 % of control, the T/C (endpoint: mean survival time, dose: 200.0 mg/kg/injection, schedule: Q01DX001 (ip), vehicle: Klucel (hydroxypropylcellulose) (HPC)) was 97 % of control and the T/C (endpoint: mean survival time, dose: 400.0 mg/kg/injection, schedule: Q01DX001 (ip), vehicle: Klucel (hydroxypropylcellulose) (HPC)) was 97 % of control.
`O=C(NNC(=O)c1ccccc1Cl)Nc1ccc(F)c(Cl)c1` was tested, and the T/C [1] was 91 % of control, the T/C [3] was 86 % of control and the T/C [5] was 87 % of control.
For `C/C=C/CNc1ccc(C)cc1`, the T/C (endpoint: mean survival time, dose: 66.0 mg/kg/injection, schedule: Q01DX009 (ip), vehicle: saline with Tween-80) was 98 % of control, the T/C [1] was 100 % of control and the T/C [2] was 103 % of control. For the same molecule, the T/C (endpoint: mean survival time, dose: 150.0 mg/kg/injection, schedule: Q01DX009 (ip), vehicle: saline with Tween-80) was 102 % of control.
